Results on 17 molecules are retold here after patent US20250270191A1, “QUINOLONE BCL6 BIFUNCTIONAL DEGRADERS” (Treeline Biosciences, Inc., priority 2022, published 2025).

This assay deals with T1, Human BCL6 protein (N-terminal HiBiT tagged BCL6 in HT1080 cells) (Homo sapiens, UniProt P41182+Q96SW2).
T1 construct: Human BCL6 protein coding open reading frame; expressed in transfected cells; host or cells: HT1080 (ATCC CCL-121), stably transduced with lentivirus pLV-UBC-N-HiBiT-BCL6-PGK-puro
Kind of assay: HiBiT based BCL6 degradation assay. It counts as cell-based. Particulars: HT1080 cells expressing N-terminal HiBiT tagged BCL6; 5 hours incubation; BCL6 degradation normalized with DMSO control. An excerpt: Human BCL6 protein coding open reading frame fused with N-terminal HiBiT coding sequence was synthesized from Integrated DNA Technologies (IDT). Next, the N-HiBiT-BCL6 sequence was cloned into pLV-UBC-PGK-Puro, a lentivirus plasmid purchased from Vectorbuilder, to generate pLV-UBC-N-HiBiT-BCL6-PGK-puro. Lentiviral particles were generated from Lenti-X™ 293T cells (Clontech) by co-transfection of pLV-UBC-N-HiBiT-BCL6-PGK-puro plasmids and lentiviral packaging plasmid mix (Cellecta). HT1080 [HT1080] (ATCC CCL-121) cells were infected with the lentivirus, and HT1080 cells stably integrated with the lentiviral vectors were established by incubation with 1 μg/mL puromycin (Thermofisher).
HT1080 cells expressing N-terminal HiBiT tagged BCL6 were dispensed into a 384-well plate pre-spotted with compounds at varying concentrations. Five thousand cells were seeded into each well in 40 μL of RPMI 1640 media plus 10% Fetal Bovine Serum (10082-147, Thermofisher). After 5 hours of incubation at 37° C. with 5% CO2, 30 μL of the NANO-GLO® HiBiT Lytic Detection System working solution (Promega) was added to each well and incubated at room temperature for 15 min. After incubation, luminescence was read on a PHERAstar FSX Plate Reader (BMG). BCL6 degradation at each indicated concentration was normalized with DMSO control. The BCL6 degradation curves were plotted using a four-parameter logistic model.
In general terms: With HiBiT, luminescence reflects the tagged protein that the partner subunit can reach.
Turning to `CNC(=O)COc1cc2cc(Nc3nc(N4CCC[C@@H]4CNc4ccc5c(C6CCC(=O)NC6=O)nn(C)c5c4)ncc3Cl)ccc2n(C)c1=O` (stereo partly drawn) [Compound 279b, 2-((6-((5-chloro-2-((2R)-2-(((3-(2,6-dioxopiperidin-3-yl)-1-methyl-1H-indazol-6-yl)amino)methyl)pyrrolidin-1-yl)pyrimidin-4-yl)amino)-1-methyl-2-oxo-1,2-dihydroquinolin-3-yl)oxy)-N-methylacetamide], the “Ymin (5 hr)” value is recorded as “+++ (25% < Ymin ≤ 50%)”. Then `CNC(=O)COc1cc2cc(Nc3nc(N4CCC[C@@H](CNc5ccc(C6CCC(=O)NC6=O)cc5)C4)ncc3Cl)ccc2n(C)c1=O` (stereo partly drawn) [Compound 106b, 2-((6-((5-chloro-2-((3S)-3-(((4-(2,6-dioxopiperidin-3-yl)phenyl)amino)methyl)piperidin-1-yl)pyrimidin-4-yl)amino)-1-methyl-2-oxo-1,2-dihydroquinolin-3-yl)oxy)-N-methylacetamide], with “++ (50% < Ymin ≤ 70%)”; and `CNC(=O)COc1cc2cc(Nc3nc(N4CCC[C@@H](CNc5cccc(C6CCC(=O)NC6=O)c5)C4)ncc3Cl)ccc2n(C)c1=O` (stereo partly drawn) [Compound 275b, 2-((6-((5-chloro-2-((3S)-3-(((3-(2,6-dioxopiperidin-3-yl)phenyl)amino)methyl)piperidin-1-yl)pyrimidin-4-yl)amino)-1-methyl-2-oxo-1,2-dihydroquinolin-3-yl)oxy)-N-methylacetamide], with “++ (50% < Ymin ≤ 70%)”.

With `CNC(=O)COc1cc2cc(Nc3nc(NC[C@@H]4CCCN(c5cccc6c(C7CCC(=O)NC7=O)nn(C)c56)C4)ncc3Cl)ccc2n(C)c1=O` (stereo partly drawn) [Compound 303a, 2-((6-((5-chloro-2-((((3S)-1-(3-(2,6-dioxopiperidin-3-yl)-1-methyl-1H-indazol-7-yl)piperidin-3-yl)methyl)amino)pyrimidin-4-yl)amino)-1-methyl-2-oxo-1,2-dihydroquinolin-3-yl)oxy)-N-methylacetamide], the “Ymin (5 hr)” value is on record as “++ (50% < Ymin ≤ 70%)”. Then `CNC(=O)COc1cc2cc(Nc3nc(N4CCC(CN5CCN(C(=O)c6cccc7c(C8CCC(=O)NC8=O)nn(C)c67)CC5)CC4)ncc3Cl)ccc2n(C)c1=O` (centres unmarked) [Compound 324, 2-((6-((5-chloro-2-(4-((4-(3-(2,6-dioxopiperidin-3-yl)-1-methyl-1H-indazole-7-carbonyl)piperazin-1-yl)methyl)piperidin-1-yl)pyrimidin-4-yl)amino)-1-methyl-2-oxo-1,2-dihydroquinolin-3-yl)oxy)-N-methylacetamide], with “+++ (25% < Ymin ≤ 50%)”. With `CNC(=O)COc1cc2cc(Nc3nc(N4CCC[C@@H](COc5cccc6c(C7CCC(=O)NC7=O)nn(C)c56)C4)ncc3Cl)ccc2n(C)c1=O` (stereo partly drawn) [Compound 301b, 2-((6-((5-chloro-2-((3R)-3-(((3-(2,6-dioxopiperidin-3-yl)-1-methyl-1H-indazol-7-yl)oxy)methyl)piperidin-1-yl)pyrimidin-4-yl)amino)-1-methyl-2-oxo-1,2-dihydroquinolin-3-yl)oxy)-N-methylacetamide] the entry was “++ (50% < Ymin ≤ 70%)”.

Regarding `CNC(=O)COc1cc2cc(Nc3nc(N4CCC[C@H](COc5cccc6c(C7CCC(=O)NC7=O)nn(C)c56)C4)ncc3Cl)ccc2n(C)c1=O` (stereo partly drawn) [Compound 301a, 2-((6-((5-chloro-2-((3S)-3-(((3-(2,6-dioxopiperidin-3-yl)-1-methyl-1H-indazol-7-yl)oxy)methyl)piperidin-1-yl)pyrimidin-4-yl)amino)-1-methyl-2-oxo-1,2-dihydroquinolin-3-yl)oxy)-N-methylacetamide], the “Ymin (5 hr)” value was “++ (50% < Ymin ≤ 70%)”. Turning to `CNC(=O)COc1cc2cc(Nc3nc(N4CCC[C@H](CN(C)c5cccc6c(C7CCC(=O)NC7=O)nn(C)c56)C4)ncc3Cl)ccc2n(C)c1=O` (stereo partly drawn) [Compound 299a, 2-((6-((5-chloro-2-((3R)-3-(((3-(2,6-dioxopiperidin-3-yl)-1-methyl-1H-indazol-7-yl)(methyl)amino)methyl)piperidin-1-yl)pyrimidin-4-yl)amino)-1-methyl-2-oxo-1,2-dihydroquinolin-3-yl)oxy)-N-methylacetamide], the “Ymin (5 hr)” value was “+++ (25% < Ymin ≤ 50%)”. With `CNC(=O)COc1cc2cc(Nc3nc(N4CCC(CC5CCN(c6ccc7c(C8CCC(=O)NC8=O)nn(C)c7c6)CC5)CC4)ncc3Cl)ccc2n(C)c1=O` (centres unmarked) [Compound 288, 2-((6-((5-chloro-2-(4-((1-(3-(2,6-dioxopiperidin-3-yl)-1-methyl-1H-indazol-6-yl)piperidin-4-yl)methyl)piperidin-1-yl)pyrimidin-4-yl)amino)-1-methyl-2-oxo-1,2-dihydroquinolin-3-yl)oxy)-N-methylacetamide] the entry was “+++ (25% < Ymin ≤ 50%)”; with `CNC(=O)COc1cc2cc(Nc3nc(N4CCN(C[C@H]5CCN(c6ccc7c(C8CCC(=O)NC8=O)nn(C)c7c6)C5)CC4)ncc3Cl)ccc2n(C)c1=O` (stereo partly drawn) [Compound 306a, 2-((6-((5-chloro-2-(4-(((3R)-1-(3-(2,6-dioxopiperidin-3-yl)-1-methyl-1H-indazol-6-yl)pyrrolidin-3-yl)methyl)piperazin-1-yl)pyrimidin-4-yl)amino)-1-methyl-2-oxo-1,2-dihydroquinolin-3-yl)oxy)-N-methylacetamide], “+++ (25% < Ymin ≤ 50%)”.

As to `CNC(=O)COc1cc2cc(Nc3nc(NC[C@H]4CC[C@H](Nc5ccc(C6CCC(=O)NC6=O)cc5)CC4)ncc3Cl)ccc2n(C)c1=O` (some centres unmarked) [Compound 277a, 2-((6-((5-chloro-2-((((1r,4r)-4-((4-(2,6-dioxopiperidin-3-yl)phenyl)amino)cyclohexyl)methyl)amino)pyrimidin-4-yl)amino)-1-methyl-2-oxo-1,2-dihydroquinolin-3-yl)oxy)-N-methylacetamide], the “Ymin (5 hr)” value was “+ (Ymin > 70%)”.

Consider `CNC(=O)COc1cc2cc(Nc3nc(N4CCN(CC5CCC6(CC5)CN(c5cccc7c(C8CCC(=O)NC8=O)nn(C)c57)C6)CC4)ncc3Cl)ccc2n(C)c1=O` (centres unmarked) [Compound 104, 2-((6-((5-chloro-2-(4-((2-(3-(2,6-dioxopiperidin-3-yl)-1-methyl-1H-indazol-7-yl)-2-azaspiro[3.5]nonan-7-yl)methyl)piperazin-1-yl)pyrimidin-4-yl)amino)-1-methyl-2-oxo-1,2-dihydroquinolin-3-yl)oxy)-N-methylacetamide], for which the “Ymin (5 hr)” value is listed as “+++ (25% < Ymin ≤ 50%)”.

On to `CNC(=O)COc1cc2cc(Nc3nc(N4CC5(CCC(Nc6cccc7c(C8CCC(=O)NC8=O)nn(C)c67)CC5)C4)ncc3Cl)ccc2n(C)c1=O` (centres unmarked) [Compound 342, 2-((6-((5-chloro-2-(7-((3-(2,6-dioxopiperidin-3-yl)-1-methyl-1H-indazol-7-yl)amino)-2-azaspiro[3.5]nonan-2-yl)pyrimidin-4-yl)amino)-1-methyl-2-oxo-1,2-dihydroquinolin-3-yl)oxy)-N-methylacetamide], for which the “Ymin (5 hr)” value is on record as “+++ (25% < Ymin ≤ 50%)”. In the case of `CNC(=O)COc1cc2cc(Nc3nc(N4CCC(CN5CCN(c6ccc7c(C8CCC(=O)NC8=O)nn(C)c7c6)CC5)CC4)ncc3Cl)ccc2n(C)c1=O` (centres unmarked) [Compound 334, 2-((6-((5-chloro-2-(4-((4-(3-(2,6-dioxopiperidin-3-yl)-1-methyl-1H-indazol-6-yl)piperazin-1-yl)methyl)piperidin-1-yl)pyrimidin-4-yl)amino)-1-methyl-2-oxo-1,2-dihydroquinolin-3-yl)oxy)-N-methylacetamide], the “Ymin (5 hr)” value is reported as “++++ (Ymin ≤ 25%)”.

As for `CNC(=O)COc1cc2cc(Nc3nc(N4CCC(CC5CN(c6cccc7c(C8CCC(=O)NC8=O)nn(C)c67)C5)CC4)ncc3Cl)ccc2n(C)c1=O` (centres unmarked) [Compound 310, 2-((6-((5-chloro-2-(4-((1-(3-(2,6-dioxopiperidin-3-yl)-1-methyl-1H-indazol-7-yl)azetidin-3-yl)methyl)piperidin-1-yl)pyrimidin-4-yl)amino)-1-methyl-2-oxo-1,2-dihydroquinolin-3-yl)oxy)-N-methylacetamide], the “Ymin (5 hr)” value was “+++ (25% < Ymin ≤ 50%)”. Consider `CNC(=O)COc1cc2cc(Nc3nc(N4CCC(CNc5ccc(C6CCC(=O)NC6=O)cc5)CC4)ncc3Cl)ccc2n(C)c1=O` (centres unmarked) [Compound 265, 2-((6-((5-chloro-2-(4-(((4-(2,6-dioxopiperidin-3-yl)phenyl)amino)methyl)piperidin-1-yl)pyrimidin-4-yl)amino)-1-methyl-2-oxo-1,2-dihydroquinolin-3-yl)oxy)-N-methylacetamide], for which the “Ymin (5 hr)” value is “++ (50% < Ymin ≤ 70%)”. On to `CNC(=O)COc1cc2cc(Nc3nc(N4CCC(CC5CCN(c6ccc7c(C8CCC(=O)NC8=O)nn(C)c7c6)C5)CC4)ncc3Cl)ccc2n(C)c1=O` (centres unmarked) [Compound 332, 2-((6-((5-chloro-2-(4-((1-(3-(2,6-dioxopiperidin-3-yl)-1-methyl-1H-indazol-6-yl)pyrrolidin-3-yl)methyl)piperidin-1-yl)pyrimidin-4-yl)amino)-1-methyl-2-oxo-1,2-dihydroquinolin-3-yl)oxy)-N-methylacetamide], for which the “Ymin (5 hr)” value was “+++ (25% < Ymin ≤ 50%)”.
